Laboratory results: patent US11903935B2, “Inhibitors of SARM1 NADase activity and uses thereof” (Washington University, priority 2016, dated 2024)
One block for each molecule: values may come before it.

Assays:
SARM1 TIR [1] = target: T1, SARM1 TIR (Homo sapiens (Human), UniProt Q6SZW1); assay: NADase assay with purified bacterial hSARM1-TIR, enzyme inhibition studies; assay type: biochemical; details: 1 mM in the reaction mixture, 5 min
Target sequence in this assay (Q6SZW1 other isoform, or with tags, fused parts or gaps): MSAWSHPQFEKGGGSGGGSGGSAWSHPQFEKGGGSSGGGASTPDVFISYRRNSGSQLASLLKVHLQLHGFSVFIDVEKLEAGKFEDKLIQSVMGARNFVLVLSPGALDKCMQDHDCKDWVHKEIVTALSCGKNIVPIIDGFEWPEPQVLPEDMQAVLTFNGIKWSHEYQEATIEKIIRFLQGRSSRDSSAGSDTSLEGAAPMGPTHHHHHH
Protocol: Ten microliters of beads incubated with the indicated cell lysate were incubated with 5 μM NAD in reaction buffer (92.4 mM NaCl and 0.64×PBS). Reactions were carried out at 25° C. for the indicated amount of time and stopped by addition of 1M of perchloric acid (HClO4) and placing the tube on ice. NAD+ metabolites were extracted using HClO4/K2CO3 method and quantified by HPLC (see HPLC for metabolite measurement).
Metabolites were isolated from enzyme reaction mixture by extracting with 1M HClO4, then neutralized with 3M K2CO3, and followed by separation by centrifugation. The supernatant (90 μL) containing the extracted metabolites was mixed with 0.5M Potassium Phosphate buffer (10 μL) and metabolites were analyzed by HPLC (Nexera X2) with Kinetex (100×3 mm, 2.6 μm; Phenomenex) column. […] The levels for each compound in each experimental sample were normalized to the 0 min time point that was analyzed concurrently.
The reaction was stopped after 5 min and NAD+ metabolites were extracted by the perchloric acid method and measured by HPLC as indicated above.

SARM1 SAM-TIR lysate = SARM1 SAM-TIR lysate (Homo sapiens (Human), UniProt Q6SZW1); assay: Luminescence-based NAD+ Glo (NAD+ cycling) assay with SAM-TIR lysate; assay type: biochemical
Source text: Luminescence-based assay. This assay can complement the results obtained by HPLC, and can permit a higher throughput of compound library screening than is possible with HPLC methods. This assay is an adaptation of the NAD+/NADH-GLO™ assay (Promega G9071, Promega Corporation, Madison, WI). In this assay, NAD+ cycling enzymes convert NAD+ into NADH. In the presence of NADH, the reductase enzymatically converts a pro-luciferin reductase substrate into luciferin. Luciferin is detected using ULTRA-GLO™ rLuciferase, and the chemiluminescence intensity is proportional to the amount of NAD+ and NADH in the sample. Under the present assay conditions, the amount of NAD+ and NADH present in the lysate is undetectable with this assay, precluding any endogenous contribution to the final NAD+ detected. The assay was set up as follows: 2 μl candidate inhibitor (final concentration 1 μM, 2% DMSO), 0.07 μg lysate (2 μl), and 2 μl of 400 nM NAD+. The reaction was incubated at 37° C. for 60 min, then 6 μl NAD+/NADH-GLO™ detection reagent was added. After 30 min at room temperature, the luminescent signals were quantified using a CYTATION™ 5 imaging reader (BIOTEK®).

DRG neurons = assay: In vitro axon degeneration assay after axotomy (degeneration index); assay type: cell-based, mouse
Protocol: Mouse dorsal root ganglion (DRG) were dissected from embryonic days 13.5 CD1 mouse embryo (˜50 ganglion per embryo) and incubated with 0.05% Trypsin solution containing 0.02% EDTA (Gibco) at 37° C. for 15 min. Then cell suspensions are triturated by gentle pipetting and washed 3 times with DRG growth medium (Neurobasal medium (Gibco) containing 2% B27 (Invitrogen), 100 ng/ml 2.5S NGF (Harlan Bioproduts), 1 μM uridine (Sigma), 1 μM 5-fluoro-2′-deoxyuridine (Sigma), penicillin, and streptomycin). Cells were suspended in DRG growth medium at a ratio of 100 μl medium/50 DRGs. The cell density of these suspensions was ˜7×10^6 cells/ml. Cell suspension (10 μl) was placed in the center of the well using 24-well tissue culture plates (Corning) coated with poly-D-Lysine (0.1 mg/ml; Sigma) and laminin (3 μg/ml; Invitrogen). […]
Axonal degeneration was induced by axotomy or by the addition of vincristine (0.04 μM) using DRG drop cultures in 96 well at DIV 6. […] Axon degeneration was quantified using degeneration index (DI) calculated using ImageJ (NIH, Sasaki et al., 2009, J. Neurosci., […]: 5525-5535). […] The DI was calculated from axon images from the same fields before (0 hour) and after (9-72 hours) axotomy. […] Axon degeneration was monitored by imaging axons before injury, and various time points after axotomy.

SARM1 TIR [2] = target: T1, SARM1 TIR; assay: SARM1 TIR-based assay (bacterially expressed, tagged SARM1 TIR fragment on beads); assay type: biochemical; details: compound at 5 μM, 5 μM NAD+
Source text: The present Example describes a SARM1 TIR-based Assay. This assay is similar to the assay described in Example 1, but allows for the identification and/or characterization of compounds that directly interact with the TIR domain, whereas the assay described in Example 1 can also identify compounds that disrupt SAM domain interactions. This assay makes use of the bacterial expression of a tagged version of the SARM1 TIR fragment that can be affinity purified. Displaying this artificial SARM1 TIR domain on a solid surface (i.e. affinity beads) generates an active NAD+ cleavage enzyme.
The TIR domain of SARM1 was tagged with a tandem STREP-TAG® at the N-terminus, and a polyhistidine tag at the C-terminus, and was cloned into a pET30a+ plasmid. The construct was then transformed into SHuffle® T7 Express Competent E. coli (New England BioLabs, Ipswich, MA) and single colonies were grown overnight. The next day, cultures were diluted in LB media, grown at 30° C. until they reached A600=0.4-0.8, when IPTG (0.5 mM final concentration) was added. The bacteria were grown for an additional 4 h, pelleted by centrifugation, washed with PBS and stored at −80° C. For protein purification, the frozen bacterial pellet was thawed on ice, resuspended in binding buffer (without protease inhibitors) and incubated with 100 μg/mL lysozyme for 15 min on ice. Protease inhibitor cocktail was then added and the cells were lysed by sonication.
The SARM1 TIR protein was first purified by Strep Tag affinity methods where bacterial lysates were incubated with […] (STREP-TACTIN®, IBA GmBH, Gottingen Germany) type 3 XT beads suspension (IBA Lifesciences) for 30 min. The beads were then washed three times with binding buffer, and bound proteins were eluted from MagStrep type 3 XT beads with 22.5 mM biotin for 25 min. Supernatant containing the eluted protein was separated from MagStrep beads, and incubated with 10 μL Co2+ DYNABEAD® (ThermoFisher Scientific, Waltham, MA) suspension for 30 min to bind SARM1-TIR proteins via the His tag. The beads were then washed at least two times with binding buffer and resuspended in 100 μL of binding buffer for NADase assay.
Ten microliters of purified SARM1-TIR laden beads were incubated with 5 μM NAD+ in reaction buffer (92.4 mM NaCl and 0.64×PBS). Reactions were carried out at 25° C. for the indicated amount of time and stopped by addition of 1M of perchloric acid (HClO4) and placing the tube on ice. NAD+ metabolites were extracted using HClO4/K2CO3 method and quantified by HPLC (see metabolite measurement below). For LC-MS/MS analysis, the extraction was performed using 50% methanol in distilled water and chloroform (see LC-MS/MS metabolite measurement below). […] Select potent inhibitors (622608, 622689) identified from SARM1 SAM-TIR lysate screen were added to the reaction at 5 μM. NAD normalized to control at 0 min.
Metabolites were isolated from enzyme reaction mixture by extracting with 1M HClO4, then neutralized with 3M K2CO3, and followed by separation by centrifugation. The supernatant (90 μL) containing the extracted metabolites was mixed with 0.5M Potassium Phosphate buffer (10 μL) and metabolites were analyzed by HPLC (Nexera X2) with KINETEX® (100×3 mm, 2.6 μm; PHENOMENEX®) column and metabolites are monitored with absorbance at 254 nm. Internal standards for NAD+, Nicotinamide (Nam), ADP Ribose (ADPR) were used to generate standard curves for quantification of the respective compounds. The levels for each compound in each experimental sample was normalized to the 0 min time point that was analyzed concurrently.
These analogs were tested using an assay that makes use of a bacterially-expressed tagged version of the SARM1 TIR fragment, as described in Example 2. Displaying this artificial SARM1 TIR domain on a solid surface (i.e. affinity beads) generates an active NAD+ cleavage enzyme.

SARM1 TIR [3] = target: T1, SARM1 TIR; assay: In vitro NADase assay with SARM1-TIR complexes purified from NRK1-HEK293T cells, substrate specificity; assay type: biochemical
Protocol: Approximately 10 million cells were plated and transfected the next day with 15 μg of StrepTag SARM1-TIR construct DNA using X-tremeGENE™ 9 reagent (Sigma-Aldrich, St. Louis MO). […] After 2 days the cells were harvested and lysed by sonication in binding buffer (50 mM Sodium Phosphate buffer pH 8, 300 mM Sodium Chloride, 0.01% Tween-20, protease inhibitor tablets). For single step affinity purification, the whole cell lysates were incubated with 20 μL MagStrep (Strep-Tactin) type 3 XT beads suspension (IBA Lifesciences) for 30 min. The beads were then washed three times with binding buffer and resuspended in 100 μL of binding buffer for enzymatic assays and other downstream applications.
Ten microliters of beads incubated with the indicated cell lysate were incubated with 5 μM NAD in reaction buffer (92.4 mM NaCl and 0.64×PBS). […] NAD+ metabolites were extracted using HClO4/K2CO3 method and quantified by HPLC (see HPLC for metabolite measurement). […]
Metabolites were isolated from enzyme reaction mixture by extracting with 1M HClO4, then neutralized with 3M K2CO3, and followed by separation by centrifugation. The supernatant (90 μL) containing the extracted metabolites was mixed with 0.5M Potassium Phosphate buffer (10 μL) and metabolites were analyzed by HPLC (Nexera X2) with Kinetex (100×3 mm, 2.6 μm; Phenomenex) column. […]
Target sequence in this assay (Q6SZW1 561-724): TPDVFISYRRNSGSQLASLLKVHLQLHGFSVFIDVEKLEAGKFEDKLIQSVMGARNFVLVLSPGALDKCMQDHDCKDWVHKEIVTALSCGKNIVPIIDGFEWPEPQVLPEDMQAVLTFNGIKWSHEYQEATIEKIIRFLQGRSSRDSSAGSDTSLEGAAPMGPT

Chain of SARM1 SAM-TIR lysate (Q6SZW1 other isoform, or with tags, fused parts or gaps): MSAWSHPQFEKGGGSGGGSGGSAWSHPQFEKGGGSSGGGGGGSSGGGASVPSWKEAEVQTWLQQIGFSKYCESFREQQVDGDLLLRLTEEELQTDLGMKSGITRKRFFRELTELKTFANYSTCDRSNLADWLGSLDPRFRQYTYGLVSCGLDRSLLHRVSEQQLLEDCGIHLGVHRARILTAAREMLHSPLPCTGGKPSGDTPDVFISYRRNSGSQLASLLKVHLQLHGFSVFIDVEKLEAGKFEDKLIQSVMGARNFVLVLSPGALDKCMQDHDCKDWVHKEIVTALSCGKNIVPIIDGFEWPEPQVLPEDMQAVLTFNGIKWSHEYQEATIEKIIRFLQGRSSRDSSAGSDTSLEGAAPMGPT

inhibition of SARM1-TIR NADase activity (SARM1 TIR [1]): did not inhibit
Structure (SMILES): Nc1ncnc2c1ncn2[C@@H]1O[C@H](COP(=O)(O)OP(=O)(O)OC[C@H]2OC(O)[C@H](O)[C@@H]2O)[C@@H](O)[C@H]1O (stereo partly drawn) [ADPR, ADP Ribose]

Structure (SMILES): Br.CN(C)c1nc(=NCc2ccco2)ss1 [NSC622608]
IC50 (SARM1 SAM-TIR lysate): ~150 nM
dose dependence of inhibition of axon degeneration (DRG neurons; 0.05 to 5 μM, added 30 min before axotomy): dose dependent inhibition of axon degeneration
protection from axon degeneration (degeneration index) (DRG neurons; 24 h after axotomy): significant protection
inhibition of NADase activity of purified SARM1 TIR (SARM1 TIR [2]): inhibit NADase activity of purified SARM1 TIR

Structure (SMILES): Nc1ncnc2c1ncn2[C@@H]1O[C@H](COP(=O)(O)OP(=O)(O)OC[C@H]2O[C@@H]([n+]3cccc(C(=O)O)c3)[C@H](O)[C@@H]2O)[C@@H](O)[C@H]1O [NaAD, Nicotinic Acid Adenine Dinucleotide]
degradation by wild type SARM1-TIR complexes (substrate specificity) (SARM1 TIR [3]): do not degrade
